Experiment [1] has as its system EMT-6 mouse mammary sarcoma cells. The experiment is described as follows: Proliferation of EMT-6 cells with NADPH and texaphyrin (MTT). Type of experiment: cell-based. As to conditions: for inhibitory effect of texaphyrin with 1000 μM and 333 μM NADPH: NADPH 1000 μM and 333 μM; for inhibitory effect of texaphyrin at lower concentrations of NADPH: NADPH below 333 μM; for inhibitory effect of texaphyrin in the absence of NADPH: no NADPH. The procedure: 5A. Materials and Methods. MES-SA cells were allowed to adhere to (4) 96-well microtiter plates (4000 cells per well) overnight in 160 μL RPMI medium. Stock ascorbate 3.0 mM in medium (80 μL) was serially diluted (1:3) in rows B through F (discarding the final 80 μL). Row G was used for no-ascorbate control. Stock solutions of GdTex (2 mM in 5% mannitol) diluted in medium and 5% mannitol were prepared and added to the plates to give a final volume of 200 μL in all wells. Columns 2 and 3 contained 100 μM GdTex; columns 4 and 5 contained 75 μM GdTex, columns 6 and 7 contained 50 μM GdTex; columns 8 and 9 contained 25 μM GdTex; and columns 10 and 11 contained no GdTex (all concentrations final). Final mannitol concentration was 0.25% in all wells. The plates were incubated at 37 C under a 5% CO2/95% air atmosphere. Complex-containing medium was exchanged for fresh medium after 5 hours, and plates were incubated an additional 72 hours prior to analysis for viability using the tetrazolium dye, MTT (Mosmann, T. J. Immunol. Methods 1983, 65, 55-63). In brief, 20 μL MTT dye (Sigma Chemical, St. Louis, Mo., catalogue no. M 2128, 5 mg/mL solution in phosphate buffered saline) was added to cells in media to give a final volume of 200 μL. The plates were incubated at 37° C. for ca. 2 hours, whereupon the media was removed and isopropyl alcohol (100 μL/well) was added. Plates were vortexed for ca. 3 minutes to dissolve MTT formazan, then read on a microplate reader at 560-650 nm. Plate absorbances were normalized to wells containing neither ascorbate nor GdTex to allow plate to plate comparison. Data for each concentration of GdTex and ascorbate is the average of eight wells.
The proliferation of EMT-6 mouse mammary sarcoma (Rockwell, S. C., et al., J. Natl. Cancer Inst. 1972, 49, 735-749) cells grown in RPMI-1640 medium in the presence of NADPH and motexafin lutetium was used to assess the production of hydrogen peroxide under cell culture conditions following the protocol outlined in the previous example.
The proliferation of EMT-6 mouse mammary sarcoma (Rockwell, S. C., et al., J. Natl. Cancer Inst. 1972, 49, 735-749) cells grown in RPMI-1640 medium in the presence of NADPH and GdTex was used to assess the production of hydrogen peroxide under cell culture conditions following the protocol outlined in the previous example.

Experiment [2] is described as follows: Oxidation of ascorbate under approximate physiologic conditions (UV-vis, 266 nm). Format: biochemical. On the procedure:
• Stock ascorbic acid (Sigma A 5960) (prepared fresh): 8.82 mg/(25 mL 176.1 mg/mmol)=2.00 mM • Stock GdTex: 5.72 mg/(10.0 mL water. 1148 mg/mmol)=498 μM • Stock 4× Buffer: 200 mM HEPES, pH 7.5; 400 mM NaCl The stock solutions were prepared using ACS grade water (Aldrich 32,007-2). 4× buffer was prepared using NaCl 99.999% (Aldrich 20,443-9), HEPES (Gibco-BRL 11344-025), and sodium hydroxide 99.99% (Aldrich 30,657-6), and was treated with Chelex® 100 (BioRad 143-2832) prior to use to remove trace iron contaminants. These were combined to form the reaction mixture analyzed by UV-vis spectroscopy: 400 μL 4× Buffer, 200 μL Ascorbic Acid Stock, 979.9 μL Water, 20.1 μL GdTex Stock.
In brief, a reaction mixture was prepared containing ascorbate, buffer, and water. A lesser amount of texaphyrin catalyst, eg., 0.025 molar equivalent, was added to this reaction mixture, vortexed briefly, and placed in a quartz cuvette (0.2, 0.5, 1.0, 2.0, 5.0, or 10 mm path length as needed to give ca. 1.8 absorbance reading at 266 nm). The cuvette was placed in a UV-vis spectrophotometer and the absorbance was read every 60 seconds for ten minutes. The absorbance at 266 nm plotted against time initially gaive a straight line. The slope of initial time points (eg., plotting as M concentration vs time in minutes) provided a rate which was used as a point in a saturation (Michaelis-Menton) plot. This process was repeated at various concentrations of ascorbate. A background rate of ascorbate oxidation was also measured at each concentration of ascorbate using this procedure without GdTex catalyst. The resulting background rate of oxidation was subtracted from the rate of oxidation in the presence of catalyst.
2B. […] 2C. […] 2D. By following the procedure of Example 2A, using an initial ascorbate concentration of 1.23 mM and a texaphyrin concentration of 61.5 μM, the results summarized in below in Table 1 were obtained.

For experiment [3], the system named is MES-SA cells. In words: Radiation sensitization by clonogenic assay. Format: cell-based, human. The procedure:
The response of MES-SA cells to ionizing radiation was studied using a clonogenic assay format to confirm radiation sensitization potential.
Materials and Methods. MES-SA cells (200 to 5,000 cells per dish) were plated in T-25 flasks in 8.5 mL McCoys 5A containing 10% FBS (Gibco-BRL) and ca. 2% penicillin/streptomycin solution (Sigma) and incubated at 37° C. overnight. Stock BSO, ascorbate, GdTex (or a control 5% mannitol) solutions were prepared and 0.5 mL of each added to each flask to give a final volume of 10 mL (final concentrations of BSO, ascorbate and GdTex were 100 μM, 5 μM and 50 μM, respectively) and the cells incubated for 24 hr, whereupon the flasks were irradiated using a 137Cs irradiator (Model 40 Gammacell, J. L. Shepherd & Assoc., San Fernando, Calif.) at a dose rate of 0.805 Gy/min. Medium was removed immediately after irradiation, the cells were washed with fresh medium (5.0 mL) followed by the addition of fresh medium (10 mL) and incubation for an additional 11 days. Colonies were fixed and stained with 1% crystal violet and then counted.

Turning to `CC(=O)[O-].CC(=O)[O-].CCc1c(CC)c2cc3nc(cnc4cc(OCCOCCOCCOC)c(OCCOCCOCCOC)cc4ncc4nc(cc1[n-]2)C(CCCO)=C4C)C(C)=C3CCCO.O.[Lu+3]` [LuTex, motexafin lutetium], in experiment [1], the “inhibitory effect of texaphyrin with 1000 μM and 333 μM NADPH” value is reported as “dose-response was observed”; the “inhibitory effect of texaphyrin at lower concentrations of NADPH” value was “No inhibitory effect”; the “inhibitory effect of texaphyrin in the absence of NADPH” value was “no inhibitory effect”. In experiment [2] (procedure of Example 2A, compared with motexafin gadolinium), the “ascorbate oxidation (in words)” value was “to a lesser extent than in the presence of motexafin gadolinium”.
One may read the Km as the substrate concentration at which the rate is half of its maximum. For the compound `CC(=O)[O-].CC(=O)[O-].CCc1c(CC)c2cc3nc(cnc4cc(OCCOCCOCCOC)c(OCCOCCOCCOC)cc4ncc4nc(cc1[n-]2)C(CCCO)=C4C)C(C)=C3CCCO.O.[Gd+3]` [GdTex, motexafin gadolinium], the “radiation response, co-administration” value in experiment [3] (50 μM GdTex and 100 μM BSO co-administered, 24 h prior to irradiation) was “radiation response significantly greater than the sum of the responses obtained from them individually”. Also, the “effect on clonogenic survival as a function of radiation, single agent” value in experiment [3] (50 μM GdTex or 100 μM BSO for 24 h prior to irradiation, ascorbate-containing medium) is listed as “relatively small effect on clonogenic survival”. Moreover, in experiment [1], the “inhibitory effect of texaphyrin with 1000 μM and 333 μM NADPH” value is listed as “dose-response was observed”; the “inhibitory effect of texaphyrin at lower concentrations of NADPH” value is given as “No inhibitory effect”; the “inhibitory effect of texaphyrin in the absence of NADPH” value is given as “no inhibitory effect”. Moreover, in experiment [2] (substrate ascorbate, pH 7.5, background subtracted), the “kcat (first-order rate constant for the catalyst), ascorbate oxidation” value worked out at 0.35 min⁻¹. For the same compound, the Km in experiment [2] (substrate ascorbate, pH 7.5, background subtracted, read-out: KM (dissociation or Michaelis constant), ascorbate oxidation) is 1.06 mM.

(Values after patent publication US7579338B2, “Methods and compositions for treating atheroma, tumors and other neoplastic tissues” (Pharmacyclics, Inc., priority 1999, dated 2009).)
